Assays:
[1] = Solubility of trans-stilbene oxide in water vs 10% copolymer solution (UV spectra); format: physicochemical; conditions: in 10% solution of p-MDM/DGDM copolymer
Method: Solutions of trans-stilbene oxide were prepared in water and in a 10% solution of p-MDM/DGDM copolymer.

[2] = Solubility of DM monomers and polymers in solvents; format: physicochemical
Source text: The DM monomers as prepared by the methods exemplified in Examples 1-5 above were converted to polymers by the anionic polymerization reaction as illustrated in Reaction Scheme A and the physical properties of homopolymers of differing monomers are presented in Table 1. With reference to Table 1 it should be noted that all of the resulting polymers have very low poly dispersity (Mw/Mn). […] Water-soluble polymers are particularly useful in biological applications such as surface protection from non-specific adsorption. The data also illustrates that the glass transition temperature (Tg) of polymers with alkyl substituents decreases as the alkyl chain length increases. […] The DM polymers wherein R=2-methoxyethyl and R=ethoxy-2-methoxyethyl show lower critical solution temperature (LCST) behavior.

Row | SMILES | solubility relative to solubility in water [1] | solubility (in words) [2]
1 | c1ccc([C@@H]2O[C@H]2c2ccccc2)cc1 (relative stereo) [trans-stilbene oxide] | improved | –
2 | CCCCCCCCCCO[C@H]1[C@@H]2O[C@@H]2[C@@H]2OC[C@H]1O2 [DDM, 1,6:2,3-dianhydro-4-O-decyl-β-D-mannopyranose] | – | soluble in hexane
3 | COCCOC1C2COC(O2)C2OC12 [MEDM, 1,6:2,3-dianhydro-4-O-(2-methoxyethyl)-β-D-mannopyranose] | – | soluble in water

Source: patent US8642502B2, “Reversible gel-forming compositions for controlled delivery of bioactive substances” (TRGel, LLC, priority 2010, dated 2014)
